≈ marks a conversion by molar mass, not a printed value. Residues, ends and D or L forms follow the SMILES beside them. *: point of attachment. NH(β-GlcNAc) = CC(=O)N[C@@H]1[C@@H](O)[C@H](O)[C@@H](CO)O[C@H]1N*
Legend:
[1] = test system: Pseudomonas aeruginosa 01; assay: microbe, parasite or virus in culture
Procedure: (§1) Starting from a peptide stock solution, two-fold serial dilutions were sequentially carried out, accordingly to the broth microdilution method. Following over-night incubation, MIC100 values were determined as the lowest peptide concentration needed for no visible bacterial growth.

[2] = test system: Klebsiella pneumoniae ATCC 700,603; assay: microbe, parasite or virus in culture
Procedure: as §1

Bacillus subtilis 6633 = assay: microbe, parasite or virus in culture
Procedure: as §1

[3] = test system: Bacillus globigii TNO BMO13; assay: microbe, parasite or virus in culture
Procedure: as §1

[4] = test system: Escherichia coli ATCC 25,922; assay: microbe, parasite or virus in culture
Procedure: as §1

[5] = test system: Staphylococcus aureus ATCC 29,213; assay: microbe, parasite or virus in culture
Procedure: as §1

[6] = test system: Acinetobacter baumannii ATCC 17,978; assay: microbe, parasite or virus in culture
Procedure: as §1

MRSA WKZ-2 = assay: microbe, parasite or virus in culture
Procedure: as §1

[7] = test system: Escherichia coli ATCC 25,922; settings: E. coli ATCC 25,922; 200 μM peptide solution with fetal bovine serum 1:1 (v/v), 24 h, 37 °C, then MIC
Procedure: as §1
(§2) For comparison, the MIC values of untreated peptides (incubated in water) were also determined.

[8] = test system: Escherichia coli ATCC 25,922; settings: for MIC after treatment with pepsin / MIC after treatment with α-chymotrypsin: E. coli ATCC 25,922, 37 °C, 15 min, then MIC; for MIC after treatment with pepsin: 100 μM peptide incubated with 100 nM pepsin; for MIC after treatment with α-chymotrypsin: 100 μM peptide incubated with 100 nM α-chymotrypsin
Procedure: as §1
(§3) To analyze the stability of the peptides to the proteases, 100 μM of LL-III and glycosylated LL-III were incubated with 100 nM of α-chymotrypsin or pepsin at 37 °C for 15 min and then antimicrobial activity were assayed as reported above. The peptide solution without proteases was used as the control group.

[9] = test system: Escherichia coli ATCC 25,922; settings: E. coli ATCC 25,922; peptide incubated in water without proteases or serum
Procedure: as §1, §3, §2

[10] = test system: BALB/c 3T3 cells (normal murine fibroblasts); settings: BALB/c 3T3, two-fold dilutions of peptide, 24 h, 37 °C, 5% CO2, three independent experiments
Procedure: In brief, 5·10^3 cells were seeded on a 96-well plate and after 16 h treated with increasing concentrations of peptides for 24 h at 37 °C and 5% CO2. Cell viability was analyzed by performing the (3-(4,5-dimethylthiazol-2-yl)-2,5 diphenyltetrazolium bromide) reduction inhibition assay (MTT assay)[42].
Normal and transformed murine fibroblasts, 3T3 and SVT2, were treated with increasing concentration of the two peptides. After 24 h of incubation at 37 °C and 5% CO2, cells mitochondrial activity was measured performing MTT assay.

[11] = Pseudomonas aeruginosa 01, 1 × 10^6 CFU/mL, 0.5X Nutrient Broth, over-night, MIC100
[12] = Klebsiella pneumoniae ATCC 700,603, 1 × 10^6 CFU/mL, 0.5X Nutrient Broth, over-night, MIC100
[13] = Bacillus subtilis 6633, 1 × 10^6 CFU/mL, 0.5X Nutrient Broth, over-night, MIC100
[14] = Bacillus globigii TNO BMO13, 1 × 10^6 CFU/mL, 0.5X Nutrient Broth, over-night, MIC100
[15] = Escherichia coli ATCC 25,922, 1 × 10^6 CFU/mL, 0.5X Nutrient Broth, over-night, MIC100
[16] = Staphylococcus aureus ATCC 29,213, 1 × 10^6 CFU/mL, 0.5X Nutrient Broth, over-night, MIC100
[17] = Acinetobacter baumannii ATCC 17,978, 1 × 10^6 CFU/mL, 0.5X Nutrient Broth, over-night, MIC100
[18] = MRSA WKZ-2, 1 × 10^6 CFU/mL, 0.5X Nutrient Broth, over-night, MIC100
[19] = from MIC values against E. coli after 15 min at 37 °C with protease

Row | SMILES | MIC after treatment with 50% FBS [7] | MIC after treatment with pepsin [8] | MIC after treatment with α-chymotrypsin [8] | MIC [1, 11] | MIC [2, 12] | MIC (Bacillus subtilis 6633; [13]) | MIC [3, 14] | MIC [4, 15] | MIC [5, 16] | MIC [6, 17] | MIC (MRSA WKZ-2; [18]) | MIC after treatment in water (control) [9] | other results
1 | O=C(O)c1cn(C2CC2)c2cc(N3CCNCC3)c(F)cc2c1=O [Ciprofloxacin] |  |  |  |  |  |  |  |  |  |  |  |  | MIC ([1]; Pseudomonas aeruginosa, 01): 0.3 µM (≈ 0.0994 µg/mL); MIC ([2]; Klebsiella pneumoniae): 1.2 µM (≈ 0.398 µg/mL); MIC (Bacillus subtilis 6633; Bacillus subtilis, 6633): 0.15 µM (≈ 0.0497 µg/mL); MIC ([3]; Bacillus subtilis, TNOBMO13): 0.3 µM (≈ 0.0994 µg/mL); MIC ([4]; Escherichia coli): 0.15 µM (≈ 0.0497 µg/mL); MIC ([5]; Staphylococcus aureus, ATCC29): 0.6 µM (≈ 0.199 µg/mL); MIC ([6]; Acinetobacter baumannii): 0.15 µM (≈ 0.0497 µg/mL); MIC (MRSA WKZ-2; Staphylococcus aureus, MRSA): 0.3 µM (≈ 0.0994 µg/mL)
2 | CC[C@H](C)[C@H](NC(=O)[C@H](CCCCN)NC(=O)[C@H](CCCCN)NC(=O)[C@H](Cc1c[nH]c2ccccc12)NC(=O)[C@H](CC(N)=O)NC(=O)[C@@H](N)C(C)C)C(=O)N[C@@H](CC(C)C)C(=O)NCC(=O)N[C@@H](CCCCN)C(=O)N[C@H](C(=O)N[C@H](C(=O)N[C@@H](CCCCN)C(=O)N[C@H](C(=O)N[C@H](C(=O)N[C@@H](CCCCN)C(N)=O)C(C)C)C(C)C)[C@@H](C)CC)[C@@H](C)CC [LL-III, Lasioglossin III] (H-VNWKKILGKIIKVVK-NH2) | 6.25 µM | 12.5 µM | 25 µM | 1.56 µM (≈ 2.75 µg/mL) | 3.12 µM (≈ 5.51 µg/mL) | 1.56 µM (≈ 2.75 µg/mL) | 1.56 µM (≈ 2.75 µg/mL) | 3.12 µM (≈ 5.51 µg/mL) | 1.56 µM (≈ 2.75 µg/mL) | 3.12 µM (≈ 5.51 µg/mL) | 3.12 µM (≈ 5.51 µg/mL) | 3.12 µM (≈ 5.51 µg/mL) | 
3 | CC[C@H](C)[C@H](NC(=O)[C@H](CCCCN)NC(=O)[C@H](CCCCN)NC(=O)[C@H](Cc1c[nH]c2ccccc12)NC(=O)[C@H](CC(=O)N[C@@H]1O[C@H](CO)[C@@H](O)[C@H](O)[C@H]1NC(C)=O)NC(=O)[C@@H](N)C(C)C)C(=O)N[C@@H](CC(C)C)C(=O)NCC(=O)N[C@@H](CCCCN)C(=O)N[C@H](C(=O)N[C@H](C(=O)N[C@@H](CCCCN)C(=O)N[C@H](C(=O)N[C@H](C(=O)N[C@@H](CCCCN)C(N)=O)C(C)C)C(C)C)[C@@H](C)CC)[C@@H](C)CC [g-LL-III] (H-VD(NH(β-GlcNAc))WKKILGKIIKVVK-NH2) | 3.12 µM | 6.25 µM | 6.25 µM | 3.12 µM (≈ 6.14 µg/mL) | 3.12 µM (≈ 6.14 µg/mL) | 1.56 µM (≈ 3.07 µg/mL) | 1.56 µM (≈ 3.07 µg/mL) | 3.12 µM (≈ 6.14 µg/mL) | 1.56 µM (≈ 3.07 µg/mL) | 3.12 µM (≈ 6.14 µg/mL) | 3.12 µM (≈ 6.14 µg/mL) | 3.12 µM (≈ 6.14 µg/mL) | cell viability (MTT), g-LL-III compared with LL-III [10]: no significant differences; reduction of susceptibility to pepsin versus parental peptide [8, 19]: 2 times; reduction of susceptibility to α-chymotrypsin versus parental peptide [8, 19]: 4 times

From PMC9988962 (Scientific Reports, 2023)
